Here are results for four molecules from patent US8211883B2, “Topical delivery of phthalocyanines” (priority 2004, dated 2012).

Series [1] has as its system Chinese hamster V79-379 lung fibroblasts. Briefly: Growth delay of V79 cultures after phthalocyanine and red light. The following applies: V79 cells; for Growth Delay (12 kj/m^2), Efficiency Relative to 1 μM (AlPcCl): 18 hours, 12 kJ/m^2 red light. The class given is cell-based. As to the method:
At the time of light exposure, there were approximately 1.5×10^5 cells per 25 cm^2 flask. Following irradiation, the HBSS was replaced by 10 mL of fresh complete growth medium, and the cultures were returned to the 37° C. incubator. At various times before and after irradiation, duplicate cultures were trypsinized and counted. Controls included untreated cells and cells treated with light alone or drug alone. In addition, in each experiment, the drug to be tested was compared to a standard treatment, i.e. 1 μM AlPcCl for 18 hours followed by 12 kJ/m^2 light.
The inhibition of V79 culture growth was measured during a three day period following red light irradiation (12 kJ/m^2) of phthalocyanine-pretreated cells. With each of the active compounds, as well as with AlPcCl, there was an initial decrease in cell density, as dead cells became detached from the monolayer. Thereafter, the cell number per flask increased, as living cells grew and divided. The time for the cell density to recover to the level at the time of light exposure was considered the growth delay. […] The ratio of the growth delay for the test photosensitizer and the growth delay for AlPcCl measured in the same experiment is recorded in Table 1. There was less inhibition of culture growth when cells were exposed to compounds III, V, or VI as expected from the poor cellular uptake of these drugs.

Series [2] has the same test system. Description: Clonogenic cell survival of V79 cells after photodynamic treatment. It counts as cell-based. Conditions: for CF10(AIPcCI)/CF10 (Pc) / F10(AIPcCI)/F10 (Pc): 1.0 μM; for CF10(AIPcCI)/CF10 (Pc): CF10 = product of intracellular concentration and fluence reducing survival to 10%; for F10(AIPcCI)/F10 (Pc): F10 = fluence reducing cell survival to 10%. As to the method:
Cells were irradiated at a density of approximately 2×10^6 per 25 cm^2 flask. Immediately after irradiation, the cell monolayer was treated with trypsin, and appropriate aliquots were plated in triplicate to give 100 to 200 colonies in each 10-cm Petri dish. Cell survival was determined by the ability of the cells to form colonies containing at least 50 cells. The response of cells treated with 1 μM AlPcCl and light was compared in each experiment.
Photocytotoxicity of the phthalocyanines compounds I to VI was also assessed by clonogenic assay (Table 1, FIG. 1). In all experiments, 1 μM AlPcCl was included for comparison purposes. From the survival curves (FIG. 1), the fluence reducing the cell survival to 10% (F10) was obtained. The ratio of the F10 for AlPcCl and the F10 for the test compound is recorded in Table 1. Compounds I and II appear to be nearly as efficient photosensitizers as AlPcCl, while compound IV (assayed at half the concentration) was almost twice as efficient as the standard AlPcCl. […] However, in spite of the low efficiency of compound V in inhibiting cell growth, survival measurements were made for this compound, because it was taken up into V79 cells somewhat more efficiently than compounds III and VI.
In order to take differences in cellular uptake into consideration in the assessment of the relative efficiency of these phthalocyanines as photosensitizers of V79 cells, the survival data were replotted against the product of intracellular phthalocyanine concentration and light fluence (FIG. 2). From these curves, the product of intracellular concentration and light fluence reducing survival to 10% (CF10) was obtained, and comparisons of the values for AlPcCl and the test compounds are recorded in Table 1. By this and the other criteria, compound IV appears to be the most efficient photosensitizer. However, when consideration is given to the lesser cell uptake of compound V, it appears to be about as strong a photosensitizer as compound IV.
Using the cell culture methods described above, V79 cells Chinese hamster lung fibroblasts were treated with either 0.5 or 1.0 μM of the phthalocyanines listed in Table 3. About 18 hours thereafter, the cells were irradiated with increasing doses of 675 nm broad band red light from a 500 W tungsten-halogen lamp fitted with a 600 nm high pass filter, to determine the light dosage that would kill 90% of the phthalocyanine treated cells. Where 90% of the cells were not killed, the maximum percent of cells killed were determined, (expressed as % survival) and the related light dosage recorded.

The subject of the next series is L5178Y cells. Description: Induction of apoptosis (DNA ladder) in L5178Y cells after PDT. The class given is cell-based, Mouse. The following applies: for C × F Ld90, Minimum Demonstrated Condition to Induce Apoptosis: product of concentration and fluence.
Series [3] has as its system RIF-1 (radiation-induced fibrosarcoma) tumors. Description: PDT of RIF-1 implanted tumors. Conditions: 1 mg/kg in corn oil, 675 nm; for Tumor Responses at 24 hours: 135 J/cm^2, light 24 h after dosing; for Doubling Time of Initial Tumor Volume after PDT: 135 J/cm^2, controls 4 days. It counts as in vivo, C3H/HeN mice. Also on record: key to Tumor Responses at 24 hours: complete: no evidence of any tumor mass in any animal; only the scar from the photodynamic therapy was evident.; near complete: evidence of any tumor mass in four or five animals; only some tumor mass in one or two animals.; substantial: a significant tumor shrinkage occurred in all animals. In some animals the tumor response was complete, yet in others the response was not complete.; moderate: some tumor shrinkage was evident in some animals. In animals with some tumor shrinkage, scar formation was evident.; slight: some tumor decrease occurred in one or two mice. As to the method: The relative effectiveness at reducing tumor volume of selected phthalocyanine compounds at a given dosage was compared in vivo. RIF-1, i.e., radiation-induced fibrosarcoma, tumors were implanted into the backs of C3H/HeN mice. One tumor was implanted per mouse. Each of the phthalocyanine compounds listed in Table 7 was sonicated and vortexed in corn oil to produce a suspension. When the tumors reached […] in diameter and 2-3 mm in thickness, each mouse received 1 mg/kg in 0.1 mL of the corn oil, of the phthalocyanine suspension. For comparison, select mice received a conventional photosensitizer; either 5 mg/kg of chloroaluminum phthalocyanine tetrasulfonate, herein also referred to as “AlPcTS” in phosphate buffered saline or 5 mg/kg of Photofrin®-II in 5% dextrose. Twenty-four hours after the photosensitizers were administered, the tumors were irradiated with visible radiation delivered by an argon-pumped dye laser. The mice that received a phthalocyanine photosensitizer received light having a wavelength of 675 nm and the mice that received the Photofrin® II photosensitizer received light having a wavelength of 630 nm. Each tumor received 135 J/cm^2 of radiation. Tumor size was measured every day using calipers. The initial tumor volume was 50±10 mm^3. Tumor volume was calculated according to the hemiellipsoid model by the formula: V=½(4π)/3×(½×(w/2))×h
• complete—no evidence of any tumor mass in any animal; only the scar from the photodynamic therapy was evident. • near complete—evidence of […] in four or five animals; only some tumor mass in one or two animals. • substantial—a significant tumor shrinkage occurred in all animals. In some animals the tumor response was complete, yet in others the response was not complete. • moderate—some tumor shrinkage was evident in some animals. In animals with some tumor shrinkage, scar formation was evident. • slight—some tumor decrease occurred in one or two mice.

The test system of series [4] is Chinese hamster V79-379 lung fibroblasts. Briefly: Uptake of phthalocyanines into V79 cells. Conditions: for n Moles/10^6 Cells/μM (composite uptake value): average of all data, asterisk: listed value is for 1 μM, average would be higher. As to the method: Chinese hamster V79-379 lung fibroblasts were grown in monolayer culture in McCoy's 5A medium (Gibco Laboratories, Grand Island, N.Y.) augmented with 10% calf serum and buffered with 20 mM HEPES (pH 7.4).
Total uptake was determined by scraping the phthalocyanine-treated monolayer, collecting the cells on a glass-fiber filter, and extracting the phthalocyanine in ethanol, as previously described by Ramakrishnan, et al., 1989. (Ramakrishnan, N., M. E. Clay, M. F. Horng, A. R. Antunez, & H. H. Evans, “DNA Lesions and DNA Degradation in Mouse Lymphoma L5178Y Cells After Photodynamic Treatment Sensitized by Chloroaluminum Phthalocyanine”, Photochem. Photobiol, in press, 1989). The amount of drug was determined by absorption at 674 nm and expressed relative to the number of cells, as measured in a Coulter cell counter on an aliquot of the cell population. Controls included cells not treated with drug, medium alone, and drug-containing medium without cells.
The cells were treated with 1 μM AlPcCl (from Eastman Kodak, Rochester, N.Y.) or with phthalocyanine compositions I-VI (0.5-1.0 μM final concentration in the medium) for 18 hours by adding the appropriate volume of a 1.0 mM stock solution in dimethylformamide (DMF) to the culture medium. The growth medium was replaced with 4 mL Hank's balanced salt solution (HBSS), and the cells were irradiated. The light source was a 500 W tungsten-halogen lamp located approximately 29 inches below the surface of a glass exposure tray. The visible light administered to the cells was filtered to allow passage of only that portion of the visible spectrum above 600 nm (Lee Primary red filter No. 106, Vincent Lighting, Cleveland, Ohio). The fluence rate was approximately 0.074 kJ/m^2/s at the level of the cell monolayer.
V79 cells Chinese hamster lung fibroblasts were cultured using the cell culture methods described above. The phthalocyanines listed in table 2 were added to the cultures typically at concentrations of 1 μM, 2 μM, and/or 4 μM and incubated for 18 hours, after which aliquots of the cells were counted and other aliquots were collected on a glass fiber filter. When the filters were dry, the phthalocyanines were extracted into ethanol and the absorption determined at the peak wavelength, usually 668 nm. Values were converted to nmoles taken up by 10^6 cells, using an extinction coefficient of 2.93×10^5.

Molecules are shown by their SMILES. Marks after values point to notes of the source that are not given here.

Description for L5178Y cells: The cells were used while in exponential growth. Stock solutions of either 0.5 or 1 mM of PcIV, PcXII, PcX, PcXVIII were prepared in dimethylformamide unless otherwise indicated and added to the 10 mL medium at a rate of 1 μL per mL. After allowing 18 hours for uptake of the phthalocyanine into the cells, the flasks containing the cultures were placed on a glass exposure tray above a 500-W tungsten-halogen lamp. The exposure tray was fitted with a 600-nm high-pass filter. Flasks were exposed to various fluences of red light (up to 30 kJ/m^2) at a fluence rate of approximately 74 W/m^2). After irradiation, the cells were collected by centrifugation.
The aliquots were plated in sufficient numbers to produce 50-200 colonies. The dishes were kept in an incubator at 37° C. in an atmosphere of 5% CO2 and 95% air for 10-14 days to allow viable cells to form colonies. Colonies were counted by eye. […] The plating efficiencies of the treated cells are normalized to the plating efficiencies of control cells in each experiment.
Cells were treated with various concentrations of the compounds listed in the table and various light fluences. DNA gels were prepared and examined for the characteristic “ladder” pattern of DNA fragments. For each Pc, the minimum total PDT dose tested (calculated as the product of the minimum phthalocyanine concentration and the minimum fluence) which produced visible DNA fragments is recorded. […] PcXVIII was also added at 0.5 and 1.0 μM.

Consider `CN(C)CCC[Si](C)(C)[O][Al]1[n]2c3c4ccccc4c2N=C2N=C(N=c4c5ccccc5c([n]41)=NC1=NC(=N3)c3ccccc31)c1ccccc12` [Compound I, AlPcOSi(CH3)2(CH2)3N(CH3)2], for which the “Growth Delay (12 kj/m^2), Efficiency Relative to 1 μM (AlPcCl)” value in series [1] is 2.1. Further, in series [2], the “CF10(AIPcCI)/CF10 (Pc)” value amounted to 0.51 and the “F10(AIPcCI)/F10 (Pc)” value was determined as 0.94.
As to `C[Si](C)(CCCCNS(C)(=O)=O)O[Si]1(O)n2c3c4ccccc4c2N=C2N=C(N=c4c5ccccc5c(n41)=NC1=NC(=N3)c3ccccc31)c1ccccc12` (stereo not drawn) [IX, HOSiPcOSi(CH3)2(CH2)4NHSO2CH3], in the series on L5178Y cells (0.3 μM), the “Fluence, Minimum Demonstrated Condition to Induce Apoptosis” value (“Fluence, Minimum Demonstrated Condition” for short) is reported as 12.0 kJ/m^2 and the “C × F Ld90, Minimum Demonstrated Condition to Induce Apoptosis” value (shortened to “C × F Ld90”) worked out at 3.6 kJ/m^2. Moreover, in the series with L5178Y cells (0.5 μM), the “Fluence, Minimum Demonstrated Condition” value is listed as 8.0 kJ/m^2 and the “C × F Ld90” value is 4.0 kJ/m^2. For the same molecule, in the series on L5178Y cells (1.0 μM), the “Fluence, Minimum Demonstrated Condition” value amounted to 12.0 kJ/m^2 and the “C × F Ld90” value came to 12.0 kJ/m^2. Further, the “Maximum Effect (% survival at kj/m^2)” value in series [2] (0.5 μM, at 9 kj/m^2) stood at 44% at 9. For the same molecule, in series [3], the “Tumor Responses at 24 hours” value was “near complete” and the “Doubling Time of Initial Tumor Volume after PDT” value was determined as 11 days. Moreover, the “Uptake Into V79 Cells, 1 μM” value in series [4] (1 μM, 18 hours) is 0.1 ± 0.1 n Moles/10^6 cells. Besides, the “Uptake Into V79 Cells, 4 μM” value in series [4] (18 hours) came to 1.8 ± 0.8 n Moles/10^6 cells. Also, the “n Moles/10^6 Cells/μM (composite uptake value)” value in series [4] (V79 cells) came out at 0.3 n Moles/10^6 Cells/μM.
With `CN1CCN(CCC[Si](C)(C)O[Si]2(O)n3c4c5ccccc5c3N=C3N=C(N=c5c6ccccc6c(n52)=NC2=NC(=N4)c4ccccc42)c2ccccc23)CC1` (stereo not drawn) [Compound XXVIII, HOSiPcOSi(CH3)2(CH2)3NC4H8NCH3], in the series with L5178Y cells (0.3 μM), the “Fluence, Minimum Demonstrated Condition” value is 3.0 kJ/m^2 and the “C × F Ld90” value worked out at 0.9 kJ/m^2. In addition, in series [2] (0.5 μM, 18 hours, 675 nm red light, VII# preplated data only, XXI* not totally soluble at 0.5 mM), the “LD 90 (light dosage that kills 90% of cells)” value was 1.8 kj/m^2. In addition, in series [3], the “Tumor Responses at 24 hours” value is reported as “complete” and the “Doubling Time of Initial Tumor Volume after PDT” value came out at 24 days. Further, the “Uptake Into V79 Cells, 1 μM” value in series [4] (1 μM, 18 hours) is 1.2 ± 0.2 n Moles/10^6 cells. In addition, the “Uptake Into V79 Cells, 2 μM” value in series [4] (2 μM, 18 hours) amounted to 3.6 ± 1.0 n Moles/10^6 cells. Besides, in series [4] (18 hours), the “Uptake Into V79 Cells, 4 μM” value amounted to 11.4 ± 0.05 n Moles/10^6 cells. In addition, the “n Moles/10^6 Cells/μM (composite uptake value)” value in series [4] (V79 cells) is reported as 1.2* n Moles/10^6 Cells/μM.
For `[Cl][Al]1[n]2c3c4ccccc4c2N=C2N=C(N=c4c5ccccc5c([n]41)=NC1=NC(=N3)c3ccccc31)c1ccccc12` [AlPcCl, chloroaluminum phthalocyanine, reference compound], in series [1] (1 μM for 18 hours and 12 kj/m^2 light), the growth delay entry was “approximately 24 hours”. Further, the “Growth Delay (12 kj/m^2), Efficiency Relative to 1 μM (AlPcCl)” value in series [1] stood at 1.0. For the same molecule, in series [2], the “CF10(AIPcCI)/CF10 (Pc)” value came to 1.0 and the “F10(AIPcCI)/F10 (Pc)” value came out at 1.0. Moreover, the “Uptake, Efficiency Relative to 1 μM (AlPcCl)” value in series [4] (V79 cells, 1.0 μM, 18 hours) is on record as 1.0. In addition, the uptake in series [4] (V79 cells, 1 μM, mean±S. D., 25 determinations) is recorded as 0.723±0.172 nmole/10^7 cells.
